Test system: subjects with moderate-to-severe plaque psoriasis
Assay: PASI response, Example 2 long-term extension to Week 52
Assay type: in vivo, human
Source text: Described below is a multicenter, long-term extension (LTE), double-blind, dose-ranging, parallel group interventional study in participants from Example 1 to evaluate the long-term efficacy and safety of the hydrochloride salt of the compound of Formula (I) for the treatment of moderate-to-severe plaque psoriasis. Patients from Example 1 continued to receive the same dose of the compound of Formula (I) for an additional 36-week treatment period with a 4-week safety follow up period after the last administration of the compound of Formula (I). Patients randomized to placebo in Example 1 received the compound of Formula (I) at a dose of 100 mg QD starting at Week 16 of Example 1 (FIG. 21).
The primary efficacy endpoint is the proportion of participants achieving a PASI 75 response at Week 52, defined as at least a […] reduction from baseline PASI of Example 1. For primary analysis, composite strategy (non-responder imputation) was applied to address intercurrent event #1 (Discontinuation of study intervention due to lack of efficacy or due to an AE of worsening of psoriasis) and […] (initiation of a protocol-prohibited medication or therapy that could improve psoriasis); treatment policy strategy (observed data) was applied to intercurrent event #3 (Discontinuation of study intervention due to other reasons). Participants with missing data after application of ICEs are considered as non-responders.
Since there was no control arm (after week 16), in this primary analysis, only the proportion of participants who achieved a PASI75 response and its […] confidence interval at Week 52 were summarized for each intervention group.

[1] = Week 20, Placebo → 100 mg QD, N=35
[2] = Week 24, Placebo → 100 mg QD, N=35
[3] = Week 28, Placebo → 100 mg QD, N=35
[4] = Week 32, Placebo → 100 mg QD, N=35
[5] = Week 40, Placebo → 100 mg QD, N=35
[6] = Week 52, Placebo → 100 mg QD, N=35

CC(=O)NCCCC[C@@H]1NC(=O)[C@H](Cc2c[nH]c3c(C)cccc23)NC(=O)[C@H]([C@@H](C)O)NC(=O)[C@H](CC(N)=O)NC(=O)[C@@H](NC(C)=O)C(C)(C)SSC(C)(C)[C@@H](C(=O)N[C@@H](Cc2ccc(OCCN)cc2)C(=O)N[C@@H](Cc2ccc3ccccc3c2)C(=O)NC2(C(=O)N[C@@H](CCC(=O)O)C(=O)N[C@@H](CC(N)=O)C(=O)N[C@@H](Cc3cccnc3)C(=O)N(C)CC(N)=O)CCOCC2)NC1=O [IL-23 receptor antagonist peptide, Ac-[Pen]*-N-T-[W(7-Me)]-[Lys(Ac)]-[Pen]*-Phe[4-(2-aminoethoxy)]-[2-Nal]-[THP]-E-N-[3-Pal]-Sarc-NH2 (*[Pen]-[Pen]* formdisulfidebond)] was tested, and the “PASI ≥90% Improvement, subjects (%)” value (Week 20, 100 mg BID, N=42) was “(61.9%)”, the “PASI 100% Improvement, subjects (%)” value (Week 20, 100 mg QD, N=43) was “(14.0%)” and the “PASI ≥75% Improvement, subjects (%)” value (Week 20, 100 mg QD, N=43) was “(60.5%)”. For the same compound, the “PASI ≥90% Improvement, subjects (%)” value (Week 20, 100 mg QD, N=43) was “(44.2%)”, the “PASI 100% Improvement, subjects (%)” value [1] was “(2.9%)” and the “PASI ≥75% Improvement, subjects (%)” value [1] was “(40.0%)”. The “PASI ≥90% Improvement, subjects (%)” value [1] was “(14.3%)”, the “PASI 100% Improvement, subjects (%)” value (Week 24, 25 mg BID, N=41) was “(19.5%)” and the “PASI ≥75% Improvement, subjects (%)” value (Week 24, 25 mg BID, N=41) was “(61.0%)”. For the same compound, the “PASI ≥90% Improvement, subjects (%)” value (Week 24, 25 mg BID, N=41) was “(29.3%)”, the “PASI 100% Improvement, subjects (%)” value (Week 24, 25 mg QD, N=43) was “(16.3%)” and the “PASI ≥75% Improvement, subjects (%)” value (Week 24, 25 mg QD, N=43) was “(46.5%)”. The “PASI ≥90% Improvement, subjects (%)” value (Week 24, 25 mg QD, N=43) was “(32.6%)”, the “PASI 100% Improvement, subjects (%)” value (Week 24, 50 mg QD, N=43) was “(27.9%)” and the “PASI ≥75% Improvement, subjects (%)” value (Week 24, 50 mg QD, N=43) was “(60.5%)”. The “PASI ≥90% Improvement, subjects (%)” value (Week 24, 50 mg QD, N=43) was “(53.5%)”, the “PASI 100% Improvement, subjects (%)” value (Week 24, 100 mg BID, N=42) was “(35.7%)” and the “PASI ≥75% Improvement, subjects (%)” value (Week 24, 100 mg BID, N=42) was “(81.0%)”. The “PASI ≥90% Improvement, subjects (%)” value (Week 24, 100 mg BID, N=42) was “(69.0%)”, the “PASI 100% Improvement, subjects (%)” value (Week 24, 100 mg QD, N=43) was “(20.9%)” and the “PASI ≥75% Improvement, subjects (%)” value (Week 24, 100 mg QD, N=43) was “(69.8%)”. For the same compound, the “PASI ≥90% Improvement, subjects (%)” value (Week 24, 100 mg QD, N=43) was “(55.8%)”, the “PASI 100% Improvement, subjects (%)” value [2] was “(8.6%)” and the “PASI ≥75% Improvement, subjects (%)” value [2] was “(60.0%)”. For the same compound, the “PASI ≥90% Improvement, subjects (%)” value [2] was “(22.9%)”, the “PASI 100% Improvement, subjects (%)” value (Week 28, 25 mg BID, N=41) was “(17.1%)” and the “PASI ≥75% Improvement, subjects (%)” value (Week 28, 25 mg BID, N=41) was “(61.0%)”. For the same compound, the “PASI ≥90% Improvement, subjects (%)” value (Week 28, 25 mg BID, N=41) was “(36.6%)”, the “PASI 100% Improvement, subjects (%)” value (Week 28, 25 mg QD, N=43) was “(18.6%)” and the “PASI ≥75% Improvement, subjects (%)” value (Week 28, 25 mg QD, N=43) was “(39.5%)”. The “PASI ≥90% Improvement, subjects (%)” value (Week 28, 25 mg QD, N=43) was “(27.9%)”, the “PASI 100% Improvement, subjects (%)” value (Week 28, 50 mg QD, N=43) was “(14.0%)” and the “PASI ≥75% Improvement, subjects (%)” value (Week 28, 50 mg QD, N=43) was “(69.8%)”. The “PASI ≥90% Improvement, subjects (%)” value (Week 28, 50 mg QD, N=43) was “(48.8%)”, the “PASI 100% Improvement, subjects (%)” value (Week 28, 100 mg BID, N=42) was “(38.1%)” and the “PASI ≥75% Improvement, subjects (%)” value (Week 28, 100 mg BID, N=42) was “(78.6%)”. The “PASI ≥90% Improvement, subjects (%)” value (Week 28, 100 mg BID, N=42) was “(61.9%)”, the “PASI 100% Improvement, subjects (%)” value (Week 28, 100 mg QD, N=43) was “(25.6%)” and the “PASI ≥75% Improvement, subjects (%)” value (Week 28, 100 mg QD, N=43) was “(65.1%)”. The “PASI ≥90% Improvement, subjects (%)” value (Week 28, 100 mg QD, N=43) was “(51.2%)”, the “PASI 100% Improvement, subjects (%)” value [3] was “(14.3%)” and the “PASI ≥75% Improvement, subjects (%)” value [3] was “(62.9%)”. The “PASI ≥90% Improvement, subjects (%)” value [3] was “(22.9%)”, the “PASI 100% Improvement, subjects (%)” value (Week 32, 25 mg BID, N=41) was “(17.1%)” and the “PASI ≥75% Improvement, subjects (%)” value (Week 32, 25 mg BID, N=41) was “(53.7%)”. For the same compound, the “PASI ≥90% Improvement, subjects (%)” value (Week 32, 25 mg BID, N=41) was “(39.0%)”, the “PASI 100% Improvement, subjects (%)” value (Week 32, 25 mg QD, N=43) was “(18.6%)” and the “PASI ≥75% Improvement, subjects (%)” value (Week 32, 25 mg QD, N=43) was “(48.8%)”. For the same compound, the “PASI ≥90% Improvement, subjects (%)” value (Week 32, 25 mg QD, N=43) was “(30.2%)”, the “PASI 100% Improvement, subjects (%)” value (Week 32, 50 mg QD, N=43) was “(25.6%)” and the “PASI ≥75% Improvement, subjects (%)” value (Week 32, 50 mg QD, N=43) was “(65.1%)”. The “PASI ≥90% Improvement, subjects (%)” value (Week 32, 50 mg QD, N=43) was “(51.2%)”, the “PASI 100% Improvement, subjects (%)” value (Week 32, 100 mg BID, N=42) was “(33.3%)” and the “PASI ≥75% Improvement, subjects (%)” value (Week 32, 100 mg BID, N=42) was “(78.6%)”. The “PASI ≥90% Improvement, subjects (%)” value (Week 32, 100 mg BID, N=42) was “(66.7%)”, the “PASI 100% Improvement, subjects (%)” value (Week 32, 100 mg QD, N=43) was “(25.6%)” and the “PASI ≥75% Improvement, subjects (%)” value (Week 32, 100 mg QD, N=43) was “(69.8%)”. The “PASI ≥90% Improvement, subjects (%)” value (Week 32, 100 mg QD, N=43) was “(62.8%)”, the “PASI 100% Improvement, subjects (%)” value [4] was “(20.0%)” and the “PASI ≥75% Improvement, subjects (%)” value [4] was “(65.7%)”. The “PASI ≥90% Improvement, subjects (%)” value [4] was “(40.0%)”, the “PASI 100% Improvement, subjects (%)” value (Week 40, 25 mg BID, N=41) was “(14.6%)” and the “PASI ≥75% Improvement, subjects (%)” value (Week 40, 25 mg BID, N=41) was “(53.7%)”. The “PASI ≥90% Improvement, subjects (%)” value (Week 40, 25 mg BID, N=41) was “(31.7%)”, the “PASI 100% Improvement, subjects (%)” value (Week 40, 25 mg QD, N=43) was “(11.6%)” and the “PASI ≥75% Improvement, subjects (%)” value (Week 40, 25 mg QD, N=43) was “(48.8%)”. For the same compound, the “PASI ≥90% Improvement, subjects (%)” value (Week 40, 25 mg QD, N=43) was “(32.6%)”, the “PASI 100% Improvement, subjects (%)” value (Week 40, 50 mg QD, N=43) was “(20.9%)” and the “PASI ≥75% Improvement, subjects (%)” value (Week 40, 50 mg QD, N=43) was “(67.4%)”. For the same compound, the “PASI ≥90% Improvement, subjects (%)” value (Week 40, 50 mg QD, N=43) was “(46.5%)”, the “PASI 100% Improvement, subjects (%)” value (Week 40, 100 mg BID, N=42) was “(35.7%)” and the “PASI ≥75% Improvement, subjects (%)” value (Week 40, 100 mg BID, N=42) was “(78.6%)”. For the same compound, the “PASI ≥90% Improvement, subjects (%)” value (Week 40, 100 mg BID, N=42) was “(64.3%)”, the “PASI 100% Improvement, subjects (%)” value (Week 40, 100 mg QD, N=43) was “(25.6%)” and the “PASI ≥75% Improvement, subjects (%)” value (Week 40, 100 mg QD, N=43) was “(69.8%)”. The “PASI ≥90% Improvement, subjects (%)” value (Week 40, 100 mg QD, N=43) was “(55.8%)”, the “PASI 100% Improvement, subjects (%)” value [5] was “(28.6%)” and the “PASI ≥75% Improvement, subjects (%)” value [5] was “(60.0%)”. The “PASI ≥90% Improvement, subjects (%)” value [5] was “(45.7%)”, the “PASI 100% Improvement, subjects (%)” value (Week 52, 25 mg BID, N=41) was “(17.1%)” and the “PASI ≥75% Improvement, subjects (%)” value (Week 52, 25 mg BID, N=41) was “(58.5%)”. For the same compound, the “PASI ≥90% Improvement, subjects (%)” value (Week 52, 25 mg BID, N=41) was “(36.6%)”, the “PASI 100% Improvement, subjects (%)” value (Week 52, 25 mg QD, N=43) was “(14.0%)” and the “PASI ≥75% Improvement, subjects (%)” value (Week 52, 25 mg QD, N=43) was “(48.8%)”. The “PASI ≥90% Improvement, subjects (%)” value (Week 52, 25 mg QD, N=43) was “(27.9%)”, the “PASI 100% Improvement, subjects (%)” value (Week 52, 50 mg QD, N=43) was “(20.9%)” and the “PASI ≥75% Improvement, subjects (%)” value (Week 52, 50 mg QD, N=43) was “(69.8%)”. For the same compound, the “PASI ≥90% Improvement, subjects (%)” value (Week 52, 50 mg QD, N=43) was “(41.9%)”, the “PASI 100% Improvement, subjects (%)” value (Week 52, 100 mg BID, N=42) was “(40.5%)” and the “PASI ≥75% Improvement, subjects (%)” value (Week 52, 100 mg BID, N=42) was “(76.2%)”. The “PASI 100% Improvement, subjects (%)” value (Week 52, 100 mg QD, N=43) was “(25.6%)”, the “PASI ≥75% Improvement, subjects (%)” value (Week 52, 100 mg QD, N=43) was “(65.1%)” and the “PASI ≥90% Improvement, subjects (%)” value (Week 52, 100 mg QD, N=43) was “(51.2%)”. For the same compound, the “PASI 100% Improvement, subjects (%)” value [6] was “(34.3%)”, the “PASI ≥75% Improvement, subjects (%)” value [6] was “(65.7%)” and the “PASI ≥90% Improvement, subjects (%)” value [6] was “(57.1%)”. The “PASI and IGA response rates” value (from Week 16 to Week 52) was “generally maintained”.
